This passage reports inhibition results from patent publication US20090054629A1, “Inhibitors of Transthyretin Amyloid Fibril Formation” (THE SCRIPPS RESEARCH INSTITUTE, priority 2005, published 2009).

This test addresses T1, WT-TTR (Homo sapiens, UniProt P02766).
T1 construct: TTR is a 127-residue β-sheet rich homotetramer; made in house; host or cells: Escherichia coli
The experiment in a line: Acid-mediated (pH 4.4) TTR fibril formation assay (turbidity). It counts as biochemical. Particulars: inhibitor 7.2 μM, tetrameric TTR 3.6 μM, pH 4.4, 72 h. The method, then: The inhibitory activity of the oxime ethers (7.2 μM) against acid-mediated (pH 4.4) TTR (3.6 μM) amyloid formation is summarized in FIG. 10.
Wild type TTR was purified from an Escherichia coli expression system as described previously (Lashuel, H. A.; et al. Biochemistry 1999, 38, 13560-13573). Disposable cuvettes (Fisher #14 385 938) were charged with 495 μL of a 0.4 mg/mL stock of TTR (7.2 μM) in 10 mM phosphate (pH 7.2), 100 mM KCl, 1 mM EDTA, and 0.2% NaN3. 5 μL of the inhibitors in DMSO (1.44 mM) were added to the TTR solutions and the samples were incubated for 30 min at 37° C. The pH was then lowered to 4.4 by addition of 0.5 mL of 200 mM acetate buffer (pH 4.2, 100 mM KCI, 1 mM EDTA, 0.2% NaN3) to each cuvette. The cuvettes were left undisturbed for 72 h at 37° C., then vortexed to evenly distribute any precipitate throughout the sample. The turbidity was measured on a Hewlett Packard model 8453 UV-Vis Spectrophotometer at 350 and 400, or 500 nm. All samples were performed in duplicate or triplicate and results reported are representative examples of at least three analyses.
FIG. 4 is a table showing the activities of the 96 bisarylhydrazones that were tested for inhibition of fibril formation. Bisarylhydrazone activity (7.2 μM) against WT-TTR (3.6 μM) amyloid fibril formation at pH 4.4 (72 h). […]

In turn, `Oc1cc(Cl)cc(Cl)c1` [3,5-Dichlorophenol] gave an inhibition at 7.2 µM of 86%.

One may read the inhibition as the change of the read-out against control, counted positive when it falls. High values mean a strong effect, low ones a weak effect.
